Data reported in publication PMC4754833, “Rilpivirine analogs potently inhibit drug-resistant HIV-1 mutants” (Retrovirology, 2016).

How the values were obtained:
[1] = tested on: HIV-1 RT mutant K101P/V179I; assay: single round infection assay, K101P/V179I; type: cell-based; details: for IC50: Human immunodeficiency virus 1; for fold-change of IC50 of the mutant relative to WT: K101P/V179I vs WT
Experimental: (§1) The human osteosarcoma cell line, HOS, was obtained from Dr. Richard Schwartz (Michigan State University, East Lansing, MI) and grown in Dulbecco’s modified Eagle’s medium (Invitrogen, Carlsbad, CA) supplemented with 5 % (v/v) fetal bovine serum, 5 % newborn calf serum, and penicillin (50 units/ml) plus streptomycin (50 µg/ml; Quality Biological, Gaithersburg, MD). Virion production and single-round infectivity assays were used to determine antiviral activity (IC50 values) of the compounds as previously described.
(§2) pNLNgoMIVR-ΔEnv.LUC has been described previously. The RT open reading frame was removed from pNLNgoMIVR-ΔEnv.LUC (digestion with SpeI and SalI) and inserted between the SpeI and SalI sites of pBluescript II KS+. Using that construct as the wild-type template, we prepared the following HIV-1 RT mutants using the QuikChange II XL (Stratagene, La Jolla, CA) site-directed mutagenesis protocol kit: L100I, K103N, Y181C, Y188L, H221Y, K103N/Y181C, G190A, G190S, M230L, P236L, L100I/K103N, K103N/P225H, V106A/G190A/F227L, V106A, L234I, V106A/F227L, V106A/L234I, V106A/F227L/L234I, E40K, D67E, K101E, V111A, E138K, M184I, M184V, K101E/M184I, K101E/M184V, E138K/M184I, E138K/M184V, K101P, Y181I, and K101P/V179I. The following sense oligonucleotides were used with matching cognate antisense oligonucleotides (not shown) (Integrated DNA Technologies, Coralville, IA) in the mutagenesis: L100I, 5′-[…]-3′; L100I 2-103, 5′-[…]-3′; K103N, 5′-[…]-3′; Y181C, 5′-[…]-3′; Y188L, 5′-[…]-3′; H221Y, 5′-[…]-3′; G190A, 5′-[…]-3′; G190S, 5′-[…]-3′; P225H, 5′-[…]-3′; F227, 5′-[…]-3′; M230L, 5′-[…]-3′; P236L, 5′-[…]-3′; V106A, 5′-[…]-3′; L234I, 5′-[…]-3′; E40K, 5′-[…]-3′; D67E, 5′-[…]-3′; K101E, 5′-[…]-3′; V111A, 5′-[…]-3′; E138K, 5′-[…]-3′; M184I, 5′-[…]-3′; M184V, 5′-[…]-3′; K101P, 5′-[…]-3′; Y181I, 5′-[…]-3′; K101P/V179I, 5′-[…]-3′. The double mutants K103N/Y181C, K103N/P225H, and L100I/K103N were made using the previously generated K103N mutant and the appropriate oligonucleotides to add the second mutation, Y181C, P225, and L100I respectively. The double mutants V106A/F227L and V106A/L234I were prepared using the previously generated V106A mutant and the appropriate oligonucleotides to add the second mutation, F227L and L234I, respectively. The double mutants K101E/M184I and K101E/M184V were constructed using the previously generated K101E mutant and the appropriate oligonucleotides to add the second mutation, M184I and M184V, respectively. The double mutants E138K/M184I and E138K/M184V were constructed using the previously generated E138K mutant and the appropriate oligonucleotides for the second mutation, M184I and M184V, respectively. The triple mutant V106A/F227L/L234I was made using the previously generated V106A/F227L double mutant and the appropriate oligonucleotides for the third mutation, L234I. The triple mutant V106A/G190A/F227L was constructed in a series of steps using the previously generated V106A mutant and the appropriate oligonucleotides for the second mutation, G190A, to generate the double mutant V106A/G190A, and then the triple mutant was made using double mutant V106A/G190A and oligonucleotides for the third mutation, F227L. The DNA sequence of each construct was verified by DNA sequence determination. The sequences encoding the mutant RTs were then subcloned into pNLNgoMIVR-ΔEnv.LUC (between the KpnI and SalI sites) to produce the mutant HIV-1 constructs. These DNA sequences were also checked independently by DNA sequence determination.
(§3) 10.1186/s12977-016-0244-2 The IC50 values (nM) of RPV and the RPV analogs were determined against the NNRTI resistant mutants were measured by using a single round infection assay, n = 4. The concentrations (nM) are measured by reductions in luciferase reporter activity followed by the standard deviations. […]

HIV-1 RT mutant H221Y = tested on: HIV-1 RT mutant H221Y; set-up: method as in PMID 23217210; details: previous study; cited from earlier work
[2] = tested on: HIV-1 RT mutant V106A/F227L; assay: single round infection assay, V106A/F227L; type: cell-based; details: for fold-change of IC50 of the mutant relative to WT: V106A/F227L vs WT; for IC50: ± SD, n=4
Experimental: as §1, §2, §3

[3] = tested on: HIV-1 RT mutant K101E/M184I; assay: single round infection assay, K101E/M184I; type: cell-based; details: for fold-change of IC50 of the mutant relative to WT: K101E/M184I vs WT; for IC50: Human immunodeficiency virus 1, K101E/M184I, ± SD, n=4
Experimental: as §1, §2, §3

HIV-1 RT mutant P236L = assay: single round infection assay, P236L; type: cell-based; details: for IC50: Human immunodeficiency virus 1
Experimental: as §1, §2, §3

[4] = tested on: HIV-1 RT mutant V106A/G190A/F227L; assay: single round infection assay, V106A/G190A/F227L; type: cell-based; details: for IC50: Human immunodeficiency virus 1; for fold-change of IC50 of the mutant relative to WT: V106A/G190A/F227L vs WT
Experimental: as §1, §2, §3

HIV-1 RT mutant D67E = assay: single round infection assay, D67E; type: cell-based; details: for fold-change of IC50 of the mutant relative to WT: D67E vs WT; for IC50: ± SD, n=4
Experimental: as §1, §2, §3

HIV-1 RT mutant K103N = tested on: HIV-1 RT mutant K103N; set-up: method as in PMID 23217210; details: previous study; cited from earlier work
[5] = tested on: HIV-1 RT mutant E138K/M184I; assay: single round infection assay, E138K/M184I; type: cell-based; details: for fold-change of IC50 of the mutant relative to WT: E138K/M184I vs WT; for IC50: Human immunodeficiency virus 1, E138K/M184I, ± SD, n=4
Experimental: as §1, §2, §3

HIV-1 RT mutant M230L = assay: single round infection assay, M230L; type: cell-based; details: for fold-change of IC50 of the mutant relative to WT: M230L vs WT; for IC50: ± SD, n=4, limit of detection 100 nM
Experimental: as §1, §2, §3

WT HIV-1 = assay: single round infection luciferase assay, WT HIV-1; type: cell-based; details: Human immunodeficiency virus 1
Experimental: as §1, §2, §3

HIV-1 RT mutant K101P = assay: single round infection assay, K101P; type: cell-based; details: for IC50: Human immunodeficiency virus 1; for fold-change of IC50 of the mutant relative to WT: K101P vs WT
Experimental: as §1, §2, §3

HIV-1 RT mutant L100I = tested on: HIV-1 RT mutant L100I; set-up: method as in PMID 23217210; details: previous study; cited from earlier work
HIV-1 RT mutant Y181I = assay: single round infection assay, Y181I; type: cell-based; details: for IC50: Human immunodeficiency virus 1; for fold-change of IC50 of the mutant relative to WT: Y181I vs WT
Experimental: as §1, §2, §3

[6] = Human immunodeficiency virus 1, D67E
[7] = Human immunodeficiency virus 1, M230L

SMILES	IC50 [1] [nM]	IC50 (HIV-1 RT mutant H221Y) [nM]	fold-change of IC50 of the mutant relative to WT [2]	fold-change of IC50 of the mutant relative to WT [3]	IC50 (HIV-1 RT mutant P236L) [nM]	IC50 [4] [nM]	fold-change of IC50 of the mutant relative to WT [4]	fold-change of IC50 of the mutant relative to WT (HIV-1 RT mutant D67E)	IC50 (HIV-1 RT mutant K103N) [nM]	fold-change of IC50 of the mutant relative to WT [5]	fold-change of IC50 of the mutant relative to WT (HIV-1 RT mutant M230L)	IC50 (WT HIV-1) [nM]	IC50 (HIV-1 RT mutant K101P) [nM]	fold-change of IC50 of the mutant relative to WT (HIV-1 RT mutant K101P)	IC50 (HIV-1 RT mutant L100I) [nM]	IC50 (HIV-1 RT mutant Y181I) [nM]	fold-change of IC50 of the mutant relative to WT (HIV-1 RT mutant Y181I)	IC50 (HIV-1 RT mutant D67E; [6]) [nM]	IC50 (HIV-1 RT mutant M230L; [7]) [nM]	also measured
Cc1cc(/C=C/C#N)cc(C)c1Nc1ccnc(Nc2ccc(C#N)cc2)n1 [RPV, rilpivirine]	93.5 ± 12.1	< 7	3	3	0.2	0.5 ± 0.02	2	3	< 7	5	7	0.24 ± 0.1	6.2	26	< 7	8.8	37	–	–	fold-change of IC50 of the mutant relative to WT [1]: 390
Cc1cc(/C=C/C#N)cc(C)c1Nc1nc(Nc2ccc3scnc3c2)c2nc[nH]c2n1 [compound 21]	> 100	< 7	27	2	0.32 ± 0.09	3.8 ± 1.6	9	9	< 7	2	15	0.41 ± 0.1	> 100	–	< 7	> 100	–	3.6 ± 0.6	< 6.1	IC50 (HIV-1 RT mutant M230L; M230L): 6.1 ± 0.14 nM
Cc1cc(/C=C/C#N)cc(C)c1Nc1nc(Nc2ccc(C(F)(F)F)cc2)c2nc[nH]c2n1 [compound 15]	> 100	< 7	–	< 2	0.9 ± 0.08	2.6 ± 0.17	< 2	8	< 7	< 2	10	1.7 ± 0.3	> 100	–	< 7	50.2	30	13.1	16.8	–
Cc1cc(/C=C/C#N)cc(C)c1-n1cnc2cnc(Nc3ccc(C#N)cc3)nc21 [compound 27]	16.6	< 7	5	–	0.2 ± 0.04	2.2 ± 1.2	4	2	< 7	< 2	7	0.58 ± 0.24	4.9	8	< 7	23.1	40	–	< 6.1	fold-change of IC50 of the mutant relative to WT [1]: 29; IC50 ([2]; Human immunodeficiency virus 1, V106A/F227L (selected by DOR)): < 5 nM; IC50 ([2]; V106A/F227L (selected by DOR)): 2.9 ± 0.3 nM; IC50 (HIV-1 RT mutant M230L; M230L): 4.2 ± 0.5 nM
Cc1cc(/C=C/C#N)cc(C)c1Nc1nc(Nc2ccc(F)cc2)c2nc[nH]c2n1 [compound 17]	> 100	< 7	19	7	1.2	10.8 ± 2.5	5	12	< 7	2	10	2.2 ± 0.4	100	–	< 7	78.9	36	26	21.1	IC50 [3]: 15 nM; IC50 [5]: 5.2 ± 1.1 nM
Cc1cc(/C=C/C#N)cc(C)c1Nc1nc(Nc2ccc(C#N)cc2)c2nc[nH]c2n1 [compound 13]	> 100	< 7	< 2	< 2	0.31 ± 0.02	0.5 ± 0.2	< 2	6	< 7	3	8	0.26 ± 0.04	18.1	70	< 7	1.2	5	< 2.5	–	fold-change of IC50 of the mutant relative to WT (HIV-1 RT mutant P236L; P236L vs WT): < 2; IC50 (HIV-1 RT mutant D67E; D67E): 1.6 ± 0.4 nM
Cc1cc(/C=C/C#N)cc(C)c1Nc1ncc2ncn(-c3ccc(C#N)cc3)c2n1 [compound 26]	> 100	–	8	–	2.91	46.2 ± 11.1	6	8	–	3	–	7.7	> 100	–	–	> 100	–	62.3 ± 1.3	> 100	IC50 [3]: 7.3 ± 1.8 nM; IC50 [5]: 24.5 ± 4.8 nM
